Experimental data from patent publication US20230399327A1, “HIGH ACTIVITY HPK1 KINASE INHIBITOR” (ADLAI NORTYE BIOPHARMA CO., LTD., priority 2020, published 2023).

target: HPK1 kinase (Homo sapiens (Human), UniProt Q92918); assay: HPK1 kinase activity inhibition (ADP-Glo Kinase Assay); type: biochemical; conditions: HPK1, MBP substrate, ATP, 25° C. 60 min
Description: Test Example 1: Detection of Compound's Ability to Inhibit HPK1 Kinase Activity (Method 1)
The specific operation is as follows: configure the enzymatic reaction system buffer (10 mM MOPS, pH 7.2, 5 mM β-glycerol-phosphate, 10 mM MgCl2, 0.8 mM EDTA, 2 mM EGTA, 0.1 mM DTT); the test compound (1 mM the compound stock solution in DMSO) was diluted with buffer to the highest concentration of 60 uM (containing 6% DMSO), and the compound with a concentration of 60 μM was initially diluted 5 times with a buffer containing 6% DMSO for a total of 8 points of gradient concentration; then dilute HPK1 kinase to 30 nM in buffer. Add 2 μl of HPK1 kinase diluent to each well of a Greiner 384-well microplate (Cat. No. 784075), and add 2 μl of buffer to the control well; add 1 μl of the diluted compound to the reaction well after brief centrifugation, and add 1 μl buffer solution containing 6% DMSO to the control well; after short centrifugation, place in a 25° C. constant temperature incubator (Shanghai Yiheng Scientific Instrument Co., Ltd., Cat. No.: LRH-150) and incubate for 20 minutes. Add 3 μl of reaction substrate (10 μM MBP and 20 μM ATP dissolved in distilled water) to each well, briefly centrifuge and incubate in a constant temperature incubator at 25° C. for 60 min, and use ADP-Glo Kinase Assay Kit to detect the enzymatic reaction activity, ADP-Glo Kinase Assay Kit detection is carried out according to the operating instructions of the kit. Data are described using the half maximal inhibitory concentration IC50 of the compound.

Sequence of HPK1 kinase (Q92918 whole entry): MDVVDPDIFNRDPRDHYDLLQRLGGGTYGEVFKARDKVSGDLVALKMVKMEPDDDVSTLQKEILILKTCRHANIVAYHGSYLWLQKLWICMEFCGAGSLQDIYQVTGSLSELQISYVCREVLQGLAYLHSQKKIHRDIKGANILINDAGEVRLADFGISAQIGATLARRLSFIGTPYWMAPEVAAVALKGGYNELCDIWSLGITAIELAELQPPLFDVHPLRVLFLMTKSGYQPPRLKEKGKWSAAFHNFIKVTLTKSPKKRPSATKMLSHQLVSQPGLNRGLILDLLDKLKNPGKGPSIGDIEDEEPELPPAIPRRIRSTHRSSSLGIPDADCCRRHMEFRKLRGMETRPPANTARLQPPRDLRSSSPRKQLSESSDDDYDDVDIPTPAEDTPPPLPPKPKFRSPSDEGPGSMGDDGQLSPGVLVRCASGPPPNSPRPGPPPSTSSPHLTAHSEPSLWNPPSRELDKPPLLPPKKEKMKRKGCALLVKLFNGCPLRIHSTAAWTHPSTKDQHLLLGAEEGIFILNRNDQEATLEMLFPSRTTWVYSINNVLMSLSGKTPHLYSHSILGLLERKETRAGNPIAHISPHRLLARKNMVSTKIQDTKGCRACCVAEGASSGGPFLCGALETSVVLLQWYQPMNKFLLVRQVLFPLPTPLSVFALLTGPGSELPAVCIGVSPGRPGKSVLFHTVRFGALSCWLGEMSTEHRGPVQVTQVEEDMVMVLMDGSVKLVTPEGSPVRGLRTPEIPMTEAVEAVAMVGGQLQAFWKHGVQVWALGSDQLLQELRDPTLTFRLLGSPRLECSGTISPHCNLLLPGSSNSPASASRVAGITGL

Point of comparison: COc1nc2c(cc1Nc1ncc3cccc(-c4cnn(C)c4)c3n1)CN(C)CC2 [Example 8, N-(2-methoxy-6-methyl-5,6,7,8-tetrahydro-1,6-naphthyridin-3-yl)-8-(1-methyl-1H-pyrazole-4-yl)quinazolin-2-amine], IC50 1.84 nM. Against it:
- COc1nc2c(cc1Nc1ncc3cccc(-c4ccc5c(cnn5C)c4)c3n1)CN(C)CC2 [Example 3, N-(2-methoxy-6-methyl-5,6,7,8-tetrahydro-1,6-naphthyridin-3-yl)-8-(1-methyl-1H-indazole-5-yl)quinazolin-2-amine] — lower, < 0.1 nM
- COc1nc2c(cc1Nc1ncc3cccc(-c4ccccc4F)c3n1)CN(C)CC2 [Example 4, 8-(2-fluorophenyl)-N-(2-methoxy-6-methyl-5,6,7,8-tetrahydro-1,6-naphthyridin-3-yl)quinazoline-2-amine] — lower, < 0.1 nM
- COc1ccccc1-c1cccc2cnc(Nc3cc4c(nc3OC)CCN(C)C4)nc12 [Example 5, N-(2-methoxy-6-methyl-5,6,7,8-tetrahydro-1,6-naphthyridin-3-yl)-8-(2-methoxyphenyl)quinazole Lin-2-amine] — lower, < 0.1 nM
- COc1cccc(-c2cccc3cnc(Nc4cc5c(nc4OC)CCN(C)C5)nc23)c1 [Example 6, N-(2-methoxy-6-methyl-5,6,7,8-tetrahydro-1,6-naphthyridin-3-yl)-8-(3-methoxyphenyl)quinazole Lin-2-amine] — lower, < 0.1 nM
- COc1nc2c(cc1Nc1ncc3cccc(C4=CCOCC4)c3n1)CN(C)CC2 [Example 7, 8-(3,6-dihydro-2H-pyran-4-yl)-N-(2-methoxy-6-methyl-5,6,7,8-tetrahydro-1,6-naphthalenepyridin-3-yl)quinazolin-2-amine] — 1.5-fold lower, 1.22 nM
- COc1nc2c(cc1Nc1ncc3cccc(-c4cccnc4)c3n1)CN(C)CC2 [Example 9, N-(2-methoxy-6-methyl-5,6,7,8-tetrahydro-1,6-naphthyridin-3-yl)-8-(pyridin-3-yl)quinazoline-2-amine] — 1.9-fold higher, 3.49 nM
- COc1nc2c(cc1Nc1ncc3cccc(-c4ccc(=O)n(C)c4)c3n1)CN(C)CC2 [Example 10, 5-(2-((2-methoxy-6-methyl-5,6,7,8-tetrahydro-1,6-naphthyridin-3-yl)amino)quinazolin-8-yl)-1-Methylpyridin-2(1H)-one] — within 1.5-fold, 1.48 nM
- COc1nc2c(cc1Nc1ncc3cccc(C4CCOCC4)c3n1)CN(C)CC2 [Example 11, N-(2-methoxy-6-methyl-5,6,7,8-tetrahydro-1,6-naphthyridin-3-yl)-8-(tetrahydro-2H-pyran-4-base) quinazolin-2-amine] — within 1.5-fold, 1.54 nM
- CNC(=O)c1ccccc1-c1cccc2cnc(Nc3cc4c(nc3OC)CCN(C)C4)nc12 [Example 12, 2-(2-((2-methoxy-6-methyl-5,6,7,8-tetrahydro-1,6-naphthyridin-3-yl)amino)quinazolin-8-yl)-N-methylbenzamide] — 21-fold higher, 37.8 nM
- COC(=O)c1cccc(-c2cccc3cnc(Nc4cc5c(nc4OC)CCN(C)C5)nc23)c1 [Example 13, 3-(2-((2-methoxy-6-methyl-5,6,7,8-tetrahydro-1,6-naphthyridin-3-yl)amino)quinazolin-8-yl) methyl benzoate] — lower, < 0.1 nM
- CNC(=O)c1cccc(-c2cccc3cnc(Nc4cc5c(nc4OC)CCN(C)C5)nc23)c1 [Example 14, 3-(2-((2-methoxy-6-methyl-5,6,7,8-tetrahydro-1,6-naphthyridin-3-yl)amino)quinazolin-8-yl)-N-methylbenzamide] — within 1.5-fold, 1.92 nM
- COc1nc2c(cc1Nc1ncc3cccc(C4=CCN(C(=O)OC(C)(C)C)CC4)c3n1)CN(C)CC2 [Example 15, 4-(2-((2-methoxy-6-methyl-5,6,7,8-tetrahydro-1,6-naphthyridin-3-yl)amino)quinazolin-8-yl)-3,6-Dihydropyridine-1(2H)-carboxylic acid tert-butyl ester] — 5.4-fold higher, 9.85 nM
- C=C(C)c1cccc2cnc(Nc3cc4c(nc3OC)CCN(C)C4)nc12 [Example 16, N-(2-methoxy-6-methyl-5,6,7,8-tetrahydro-1,6-naphthyridin-3-yl)-8-(prop-1-en-2-yl) quinazolin-2-amine] — within 1.5-fold, 1.74 nM
- COc1nc2c(cc1Nc1ncc3cccc(C4=CCN(C(C)=O)CC4)c3n1)CN(C)CC2 [Example 17, 1-(4-(2-((2-methoxy-6-methyl-5,6,7,8-tetrahydro-1,6-naphthyridin-3-yl)amino)quinazoline-8-yl)-3,6-dihydropyridin-1(2H)-yl)ethan-1-one] — lower, < 0.1 nM
- COc1nc2c(cc1Nc1ncc3cccc(-c4ccccc4OC(F)(F)F)c3n1)CN(C)CC2 [Example 18] — lower, < 0.1 nM
- COc1nc2c(cc1Nc1ncc3cccc(-c4ccccc4SC)c3n1)CN(C)CC2 [Example 19, N-(2-methoxy-6-methyl-5,6,7,8-tetrahydro-1,6-naphthyridin-3-yl)-8-(2-(methylthio)phenyl) Quinazolin-2-amine] — lower, < 0.1 nM
- COc1cccc(F)c1-c1cccc2cnc(Nc3cc4c(nc3OC)CCN(C)C4)nc12 [Example 21, 8-(2-fluoro-6-methoxyphenyl)-N-(2-methoxy-6-methyl-5,6,7,8-tetrahydro-1,6-naphthyridine-3-base) quinazolin-2-amine] — lower, < 0.1 nM
- COc1nc2c(cc1Nc1ncc3cccc(-c4ccccc4OCc4ccccc4)c3n1)CN(C)CC2 [Example 22, 8-(2-(benzyloxy)phenyl)-N-(2-methoxy-6-methyl-5,6,7,8-tetrahydro-1,6-naphthyridin-3-yl) quinazolin-2-amine] — 2.8-fold higher, 5.16 nM
- COc1nc2c(cc1Nc1ncc3cccc(-c4cccnc4OC)c3n1)CN(C)CC2 [Example 23, N-(2-methoxy-6-methyl-5,6,7,8-tetrahydro-1,6-naphthyridin-3-yl)-8-(2-methoxypyridin-3-yl) quinazolin-2-amine] — lower, < 0.1 nM
- COc1nc2c(cc1Nc1ncc3cccc(N4CCCC4=O)c3n1)CN(C)CC2 [Example 24, 1-(2-((2-methoxy-6-methyl-5,6,7,8-tetrahydro-1,6-naphthyridin-3-yl)amino)quinazolin-8-yl) pyrrolidin-2-one] — lower, < 0.1 nM
- COc1ccccc1-c1nccc2cnc(Nc3cc4c(nc3OC)CCN(C)C4)nc12 [Example 25, N-(2-methoxy-6-methyl-5,6,7,8-tetrahydro-1,6-naphthyridin-3-yl)-8-(2-methoxyphenyl)pyrido [3,4-d]pyrimidin-2-amine] — 12-fold lower, 0.16 nM
- COc1nc2c(cc1Nc1ncc3ccnc(-c4ccc(=O)n(C)c4)c3n1)CN(C)CC2 [Example 27, 5-(2-((2-methoxy-6-methyl-5,6,7,8-tetrahydro-1,6-naphthyridin-3-yl)amino)pyrido[3,4-d]pyrimidino-8-yl)-1-methylpyridin-2(1H)-one] — 8.8-fold higher, 16.2 nM
- COc1nc2c(cc1Nc1ncc3cccc(-c4ccn(C)n4)c3n1)CN(C)CC2 [Example 30, N-(2-methoxy-6-methyl-5,6,7,8-tetrahydro-1,6-naphthyridin-3-yl)-8-(1-methyl-1H-pyrazole-3-yl)quinazolin-2-amine] — 6.8-fold lower, 0.27 nM
- COc1nc2c(cc1Nc1ncc3cccc(NCC4CCOCC4)c3n1)CN(C)CC2 [Example 31, N2-(2-methoxy-6-methyl-5,6,7,8-tetrahydro-1,6-naphthyridin-3-yl)-N8-((tetrahydro-2H-pyran-4-yl)methyl)quinazoline-2,8-diamine] — within 1.5-fold, 1.66 nM
- COc1nc2c(cc1Nc1ncc3cccc(N4Cc5ccccc5C4=O)c3n1)CN(C)CC2 [Example 32, 2-(2-((2-methoxy-6-methyl-5,6,7,8-tetrahydro-1,6-naphthyridin-3-yl)amino)quinazolin-8-yl) isoindolin-1-one] — 2-fold higher, 3.61 nM
- COc1nc2c(cc1Nc1ncc3ccnc(N4CCCCC4)c3n1)CN(C)CC2 [Example 33, N-(2-methoxy-6-methyl-5,6,7,8-tetrahydro-1,6-naphthyridin-3-yl)-8-(piperidin-1-yl) pyrido[3,4-d]pyrimidin-2-amine] — 3.5-fold lower, 0.52 nM
- COc1nc2c(cc1Nc1ncc3ccnc(-c4cccnc4OC)c3n1)CN(C)CC2 [Example 34, N-(2-methoxy-6-methyl-5,6,7,8-tetrahydro-1,6-naphthyridin-3-yl)-8-(2-methoxypyridin-3-yl) pyrido[3,4-d]pyrimidin-2-amine] — 3-fold lower, 0.61 nM
- COc1nc2c(cc1Nc1ncc3ccnc(N4CCOCC4)c3n1)CN(C)CC2 [Example 35, N-(2-methoxy-6-methyl-5,6,7,8-tetrahydro-1,6-naphthyridin-3-yl)-8-morpholinopyrido[3,4-d]pyrimidin-2-amine] — 1.6-fold lower, 1.16 nM
- COc1nc2c(cc1Nc1ncc3cccc(-c4ccccn4)c3n1)CN(C)CC2 [Example 37, N-(2-methoxy-6-methyl-5,6,7,8-tetrahydro-1,6-naphthyridin-3-yl)-8-(pyridin-2-yl)quinazoline-2-amine] — 2.3-fold higher, 4.27 nM
- COc1nc2c(cc1Nc1ncc3cccc(NCc4ccccc4)c3n1)CN(C)CC2 [Example 38, N8-Benzyl-N2-(2-methoxy-6-methyl-5,6,7,8-tetrahydro-1,6-naphthyridin-3-yl)quinazoline-2,8-diamine] — 4.5-fold lower, 0.41 nM
- COc1nc2c(cc1Nc1ncc3cccc(NCC(C)C)c3n1)CN(C)CC2 [Example 39, N8-isobutyl-N2-(2-methoxy-6-methyl-5,6,7,8-tetrahydro-1,6-naphthyridin-3-yl)quinazoline-2,8-diamine] — lower, < 0.1 nM
